This passage reports IC50, AC50 and EC50 results from ChEMBL document CHEMBL1201862, “PubChem BioAssay data set” (2004).

Activity calls are given as the source filed them.

Assay [1] concerns the target T1, Polyadenylate-binding protein 1 (Homo sapiens, UniProt P11940). Nature of the assay: MLLE binding blockers, Cy5 peptide tracer – biochemical, fluorescence polarization, Cy5-PAM2 peptide, secondary, miRNA deadenylation inhibitor project, dose response (AID 602260). The format is functional. As to conditions: read-out: IC50_Mean. (In general: In fluorescence polarisation assays a small probe gives low polarisation when free and higher when bound to something large.)

For assay [2], the target named is T2, SUMO-activating enzyme (Homo sapiens, UniProt Q9UBT2). Nature of the assay: blockers of UBC9-mediated SUMO conjugation – biochemical, AlphaScreen, SUMOylation inhibitor project, confirmation (AID 2018). In kind it is functional. (In Alpha technology, singlet oxygen from a donor bead excites a nearby acceptor bead.)
Assay [3] deals with T1, Polyadenylate-binding protein 1. Briefly: MLLE domain peptide-binding blockers, IC50 – biochemical, fluorescence polarization, FITC-PAM2 peptide, dose response (AID 602259). The format is functional. As to conditions: read-out: IC50_Mean.
Another assay is described as follows: cells. To be noted: HEK293.
Assay [4] has as its target T3, Apoptotic protease-activating factor 1 (Homo sapiens, UniProt O14727).
T3 sequence (O14727 whole entry): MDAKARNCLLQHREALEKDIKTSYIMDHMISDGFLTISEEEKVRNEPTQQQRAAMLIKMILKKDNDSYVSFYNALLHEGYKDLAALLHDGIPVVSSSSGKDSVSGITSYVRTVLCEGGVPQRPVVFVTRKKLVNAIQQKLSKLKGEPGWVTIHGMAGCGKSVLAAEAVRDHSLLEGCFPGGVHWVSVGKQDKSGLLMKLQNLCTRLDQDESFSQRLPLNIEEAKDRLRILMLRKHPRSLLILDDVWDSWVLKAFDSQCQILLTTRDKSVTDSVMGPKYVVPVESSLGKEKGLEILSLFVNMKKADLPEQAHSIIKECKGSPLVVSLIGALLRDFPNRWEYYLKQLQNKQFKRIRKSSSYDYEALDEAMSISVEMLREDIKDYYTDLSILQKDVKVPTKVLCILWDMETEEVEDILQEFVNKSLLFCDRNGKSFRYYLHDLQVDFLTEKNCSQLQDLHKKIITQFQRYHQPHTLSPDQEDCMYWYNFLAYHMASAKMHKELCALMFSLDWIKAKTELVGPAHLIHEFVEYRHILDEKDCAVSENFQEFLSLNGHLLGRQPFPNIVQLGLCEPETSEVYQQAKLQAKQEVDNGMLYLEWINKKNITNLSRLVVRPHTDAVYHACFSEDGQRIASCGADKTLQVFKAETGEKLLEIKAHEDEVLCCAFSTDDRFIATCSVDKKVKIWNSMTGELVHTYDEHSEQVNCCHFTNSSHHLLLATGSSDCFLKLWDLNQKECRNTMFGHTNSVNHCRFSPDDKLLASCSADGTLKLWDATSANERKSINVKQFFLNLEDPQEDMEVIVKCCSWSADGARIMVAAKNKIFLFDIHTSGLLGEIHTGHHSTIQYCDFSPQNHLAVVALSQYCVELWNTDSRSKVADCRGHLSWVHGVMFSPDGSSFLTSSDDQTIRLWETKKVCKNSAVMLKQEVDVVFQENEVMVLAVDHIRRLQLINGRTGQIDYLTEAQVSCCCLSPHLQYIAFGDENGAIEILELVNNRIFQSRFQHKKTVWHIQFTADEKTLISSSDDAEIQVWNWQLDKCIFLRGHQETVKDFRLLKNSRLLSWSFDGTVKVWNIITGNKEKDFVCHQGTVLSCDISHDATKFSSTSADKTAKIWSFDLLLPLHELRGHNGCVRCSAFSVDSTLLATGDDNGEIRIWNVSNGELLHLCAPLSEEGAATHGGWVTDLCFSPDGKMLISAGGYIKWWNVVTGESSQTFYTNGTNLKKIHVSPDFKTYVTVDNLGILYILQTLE
The format is functional.

For assay [5], the target named is T4, Voltage-gated N-type calcium channel alpha-1B subunit/Amyloid beta A4 precursor protein-binding family A member 1 (Homo sapiens, UniProt Q00975+Q02410). In kind it is protein assay.
Assay [6] deals with Glucose-6-phosphate 1-dehydrogenase (Homo sapiens, UniProt P11413). Briefly: inhibition of Homo sapiens G6PD, dose series – biochemical, fluorescence, selectivity assay for P. falciparum G6PD inhibitor project, dose response (AID 504792). In kind it is functional.
In assay [7] the target is T2, SUMO-activating enzyme. Briefly: blockers of SAE1/SAE2–UBC9 SUMO transfer – biochemical, HTRF, uHTS, primary screen (AID 2006). In kind it is protein-complex assay. Background: TR-FRET usually uses a lanthanide donor and a delayed reading to cut background.
In assay [8] the target is Mannose-6-phosphate isomerase (Homo sapiens, UniProt P34949). Nature of the assay: MPI inhibition at elevated mannose 6-phosphate – biochemical, fluorescence intensity, high mannose 6-phosphate, primary screen (AID 1220).
For assay [9], the target named is T4, Voltage-gated N-type calcium channel alpha-1B subunit/Amyloid beta A4 precursor protein-binding family A member 1. In kind it is protein assay. This is another data set of the same source.
Assay [10] is described as follows: HEK293 Cytotoxicity Assay Measured in Cell-Based System Using Plate Reader - 7071-01_Inhibitor_Dose_CherryPick_Activity_Set2. In kind it is functional.
Assay [11] is described as follows: HEK293 cell viability loss – plate reader, cherry-pick, cytotoxicity control, dose response (AID 651899). In kind it is functional, cell-based.
In assay [12] the target is Adenosylmethionine-8-amino-7-oxononanoate aminotransferase (Mycobacterium tuberculosis, UniProt P9WQ81). Nature of the assay: Mycobacterium tuberculosis BioA enzyme inhibitor Measured in Biochemical System Using Plate Reader - 2163-02_Inhibitor_Dose_CherryPick_Activity. The format is functional, Mycobacterium tuberculosis UT205.
The next assay concerns HEK293. Briefly: viability loss in HEK293T cells – cell-based, ATP luminescence, cherry-pick samples, cytotoxicity control, dose response (AID 687005).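 Note: cells exposed to compound for 48 hours.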 To be noted: Homo sapiens. In kind it is functional.
Assay [13] concerns the target COUP transcription factor 2 (Homo sapiens, UniProt P24468). Briefly: Luminescence-based cell-based high throughput dose response assay to identify inhibitors of COUP-TFII (NR2F2). In kind it is functional.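 Note: HEK293 cells transiently cotransfected with COUP-TFII expression vector and reporter; luciferase reporter luminescence driven by COUP-TFII from the pX2-168 reporter plasmid.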
The nature of assay [14]: blockers of bursicon-stimulated LGR2 cAMP reporter – cell-based, HEK293, CRE-luciferase reporter, cherry pick, set 2, dose response (AID 743343).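 Note: transfected cells were stimulated with diluted bursicon conditioned medium after compound addition.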 In kind it is functional.
For assay [15], the target named is T5, Microphthalmia-associated transcription factor (Homo sapiens, UniProt O75030).
T5 sequence (O75030 whole entry): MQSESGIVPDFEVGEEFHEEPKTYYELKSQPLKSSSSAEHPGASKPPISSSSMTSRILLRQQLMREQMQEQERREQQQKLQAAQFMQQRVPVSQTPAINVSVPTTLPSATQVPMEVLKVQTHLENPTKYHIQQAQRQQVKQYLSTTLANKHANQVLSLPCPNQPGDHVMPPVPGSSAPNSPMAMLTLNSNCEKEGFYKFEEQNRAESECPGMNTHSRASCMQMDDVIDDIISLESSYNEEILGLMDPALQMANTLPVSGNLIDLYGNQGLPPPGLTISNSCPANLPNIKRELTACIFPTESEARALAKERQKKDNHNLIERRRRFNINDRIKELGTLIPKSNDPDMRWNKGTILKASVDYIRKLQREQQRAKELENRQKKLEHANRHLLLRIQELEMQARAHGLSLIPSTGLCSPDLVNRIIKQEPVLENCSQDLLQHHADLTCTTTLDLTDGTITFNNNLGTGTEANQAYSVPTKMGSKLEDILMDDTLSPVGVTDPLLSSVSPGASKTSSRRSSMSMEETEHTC
Briefly: reducers of TRPM1 reporter luminescence, concentration series – cell-based, SK-MEL-5, cherry-picked, set 3, MITF inhibitor project, dose response (AID 493073).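 Note: SK-MEL-5 melanoma cells with luciferase driven by the MITF target TRPM1 promoter.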 The format is functional.

Assay [16] is described as follows: Shn3 3'UTR reporter signal decrease – cell-based, Clone20 osteoblasts, firefly luciferase, cherry-pick, set 2, Schnurri-3 inhibitor project, dose response (AID 720490).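 Note: actives lower the luminescence signal as inhibitors.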 In kind it is functional.
A short description of assay [17]: toxicity toward HepG2 liver cells – cell-based, plate reader, cherry-pick, antagonist series, cytotoxicity control, dose response (AID 743416). The format is functional.
Assay [18] concerns the target T6, Heat shock factor protein 1 (Mus musculus, UniProt P38532).
T6 sequence (P38532 whole entry): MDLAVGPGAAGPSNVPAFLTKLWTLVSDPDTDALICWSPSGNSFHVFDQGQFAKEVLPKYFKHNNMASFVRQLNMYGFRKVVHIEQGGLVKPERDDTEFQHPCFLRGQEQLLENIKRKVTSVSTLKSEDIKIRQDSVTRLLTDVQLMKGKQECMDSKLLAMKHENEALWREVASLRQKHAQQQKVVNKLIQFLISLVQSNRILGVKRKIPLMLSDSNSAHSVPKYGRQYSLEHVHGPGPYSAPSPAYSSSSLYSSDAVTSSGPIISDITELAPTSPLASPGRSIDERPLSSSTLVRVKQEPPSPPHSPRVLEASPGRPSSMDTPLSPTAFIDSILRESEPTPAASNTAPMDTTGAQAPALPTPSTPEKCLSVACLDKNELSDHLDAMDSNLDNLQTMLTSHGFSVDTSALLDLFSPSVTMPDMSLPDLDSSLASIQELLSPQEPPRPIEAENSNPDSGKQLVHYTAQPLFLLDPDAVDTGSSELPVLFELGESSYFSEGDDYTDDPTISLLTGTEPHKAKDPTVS
Briefly: decrease of HSF1-responsive luciferase luminescence – cell-based, NIH3T3, dose retest, confirmation (AID 2382).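 Note: NIH3T3 fibroblasts with HSF1-driven luciferase reporter stressed by proteasome inhibitor MG132; luminescence from HSF1-driven luciferase expression after 8 hours of MG132 stress.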 In kind it is functional.

The nature of assay [19]: reduction of Shn3 3'UTR-driven luciferase in osteoblasts – cell-based, Clone20 osteoblasts, firefly luciferase, cherry-picked, dose response (AID 624132).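 Note: firefly luciferase luminescence from reporter carrying the Shn3 3'UTR in osteoblasts.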 In kind it is functional.
Assay [20] in a line: viability loss in HEK293 cells – cell-based, plate reader, cherry-picked samples, cytotoxicity control, dose response (AID 743446). In kind it is functional.
Assay [21] can be described thus: blockade of melanocortin 4 receptor signaling – cell-based, plate reader, cherry pick, counter-screen for LGR2 antagonist project, dose response (AID 743444).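 Note: transfected HEK 293 cells stimulated with alpha-MSH peptide; potency of inhibitors of the alpha-MSH evoked signal.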 In kind it is functional.
Assay [22] is described as follows: A549 cell cytotoxicity, dose response, cytotoxicity control, plate reader, cherry-pick, antagonist series (AID 743412). In kind it is functional, cell-based.

T2 sequence (Q9UBE0 whole entry, the tested form may be a part): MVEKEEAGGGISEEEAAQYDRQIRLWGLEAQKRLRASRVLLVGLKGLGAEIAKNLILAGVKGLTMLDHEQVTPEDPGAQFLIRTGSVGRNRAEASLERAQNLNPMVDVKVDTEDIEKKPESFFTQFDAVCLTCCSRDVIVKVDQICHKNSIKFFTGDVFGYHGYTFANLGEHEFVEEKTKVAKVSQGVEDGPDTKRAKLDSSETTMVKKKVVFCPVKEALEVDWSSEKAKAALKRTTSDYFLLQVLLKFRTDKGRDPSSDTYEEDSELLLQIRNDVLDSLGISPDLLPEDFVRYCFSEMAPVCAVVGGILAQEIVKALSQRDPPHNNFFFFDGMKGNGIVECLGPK
T2 sequence (Q9UBT2 whole entry, the tested form may be a part): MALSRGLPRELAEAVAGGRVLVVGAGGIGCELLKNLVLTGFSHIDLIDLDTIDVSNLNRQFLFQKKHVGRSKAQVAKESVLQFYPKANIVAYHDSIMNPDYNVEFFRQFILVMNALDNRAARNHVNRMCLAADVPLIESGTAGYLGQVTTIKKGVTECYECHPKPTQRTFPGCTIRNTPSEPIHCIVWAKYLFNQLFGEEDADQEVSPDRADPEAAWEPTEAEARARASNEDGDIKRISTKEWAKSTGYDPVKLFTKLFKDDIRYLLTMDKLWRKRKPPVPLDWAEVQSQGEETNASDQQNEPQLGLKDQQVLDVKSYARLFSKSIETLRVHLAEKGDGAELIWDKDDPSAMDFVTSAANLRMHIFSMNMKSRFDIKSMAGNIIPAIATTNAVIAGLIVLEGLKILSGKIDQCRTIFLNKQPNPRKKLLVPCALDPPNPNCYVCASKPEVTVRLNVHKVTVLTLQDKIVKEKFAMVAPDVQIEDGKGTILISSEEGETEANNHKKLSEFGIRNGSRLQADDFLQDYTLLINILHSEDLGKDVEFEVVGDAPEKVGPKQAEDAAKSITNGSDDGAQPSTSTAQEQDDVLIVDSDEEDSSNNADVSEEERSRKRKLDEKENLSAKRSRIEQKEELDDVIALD
T1 sequence (P11940 whole entry): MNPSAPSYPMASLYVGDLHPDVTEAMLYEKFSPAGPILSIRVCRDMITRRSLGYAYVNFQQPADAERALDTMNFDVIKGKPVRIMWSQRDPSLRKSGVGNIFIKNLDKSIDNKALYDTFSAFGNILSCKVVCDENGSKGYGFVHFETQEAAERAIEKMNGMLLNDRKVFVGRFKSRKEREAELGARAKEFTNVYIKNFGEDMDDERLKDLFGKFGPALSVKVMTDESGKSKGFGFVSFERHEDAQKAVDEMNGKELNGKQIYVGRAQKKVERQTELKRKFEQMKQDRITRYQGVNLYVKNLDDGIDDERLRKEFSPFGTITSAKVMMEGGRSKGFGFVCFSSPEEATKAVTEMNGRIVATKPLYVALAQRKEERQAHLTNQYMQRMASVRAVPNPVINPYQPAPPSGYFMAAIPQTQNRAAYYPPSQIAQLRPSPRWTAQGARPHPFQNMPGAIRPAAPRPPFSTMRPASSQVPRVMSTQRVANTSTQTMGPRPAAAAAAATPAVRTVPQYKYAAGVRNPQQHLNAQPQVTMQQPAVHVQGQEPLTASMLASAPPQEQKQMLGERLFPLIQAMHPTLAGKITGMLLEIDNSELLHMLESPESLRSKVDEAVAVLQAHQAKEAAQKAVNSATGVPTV
T4 sequence (Q00975 whole entry): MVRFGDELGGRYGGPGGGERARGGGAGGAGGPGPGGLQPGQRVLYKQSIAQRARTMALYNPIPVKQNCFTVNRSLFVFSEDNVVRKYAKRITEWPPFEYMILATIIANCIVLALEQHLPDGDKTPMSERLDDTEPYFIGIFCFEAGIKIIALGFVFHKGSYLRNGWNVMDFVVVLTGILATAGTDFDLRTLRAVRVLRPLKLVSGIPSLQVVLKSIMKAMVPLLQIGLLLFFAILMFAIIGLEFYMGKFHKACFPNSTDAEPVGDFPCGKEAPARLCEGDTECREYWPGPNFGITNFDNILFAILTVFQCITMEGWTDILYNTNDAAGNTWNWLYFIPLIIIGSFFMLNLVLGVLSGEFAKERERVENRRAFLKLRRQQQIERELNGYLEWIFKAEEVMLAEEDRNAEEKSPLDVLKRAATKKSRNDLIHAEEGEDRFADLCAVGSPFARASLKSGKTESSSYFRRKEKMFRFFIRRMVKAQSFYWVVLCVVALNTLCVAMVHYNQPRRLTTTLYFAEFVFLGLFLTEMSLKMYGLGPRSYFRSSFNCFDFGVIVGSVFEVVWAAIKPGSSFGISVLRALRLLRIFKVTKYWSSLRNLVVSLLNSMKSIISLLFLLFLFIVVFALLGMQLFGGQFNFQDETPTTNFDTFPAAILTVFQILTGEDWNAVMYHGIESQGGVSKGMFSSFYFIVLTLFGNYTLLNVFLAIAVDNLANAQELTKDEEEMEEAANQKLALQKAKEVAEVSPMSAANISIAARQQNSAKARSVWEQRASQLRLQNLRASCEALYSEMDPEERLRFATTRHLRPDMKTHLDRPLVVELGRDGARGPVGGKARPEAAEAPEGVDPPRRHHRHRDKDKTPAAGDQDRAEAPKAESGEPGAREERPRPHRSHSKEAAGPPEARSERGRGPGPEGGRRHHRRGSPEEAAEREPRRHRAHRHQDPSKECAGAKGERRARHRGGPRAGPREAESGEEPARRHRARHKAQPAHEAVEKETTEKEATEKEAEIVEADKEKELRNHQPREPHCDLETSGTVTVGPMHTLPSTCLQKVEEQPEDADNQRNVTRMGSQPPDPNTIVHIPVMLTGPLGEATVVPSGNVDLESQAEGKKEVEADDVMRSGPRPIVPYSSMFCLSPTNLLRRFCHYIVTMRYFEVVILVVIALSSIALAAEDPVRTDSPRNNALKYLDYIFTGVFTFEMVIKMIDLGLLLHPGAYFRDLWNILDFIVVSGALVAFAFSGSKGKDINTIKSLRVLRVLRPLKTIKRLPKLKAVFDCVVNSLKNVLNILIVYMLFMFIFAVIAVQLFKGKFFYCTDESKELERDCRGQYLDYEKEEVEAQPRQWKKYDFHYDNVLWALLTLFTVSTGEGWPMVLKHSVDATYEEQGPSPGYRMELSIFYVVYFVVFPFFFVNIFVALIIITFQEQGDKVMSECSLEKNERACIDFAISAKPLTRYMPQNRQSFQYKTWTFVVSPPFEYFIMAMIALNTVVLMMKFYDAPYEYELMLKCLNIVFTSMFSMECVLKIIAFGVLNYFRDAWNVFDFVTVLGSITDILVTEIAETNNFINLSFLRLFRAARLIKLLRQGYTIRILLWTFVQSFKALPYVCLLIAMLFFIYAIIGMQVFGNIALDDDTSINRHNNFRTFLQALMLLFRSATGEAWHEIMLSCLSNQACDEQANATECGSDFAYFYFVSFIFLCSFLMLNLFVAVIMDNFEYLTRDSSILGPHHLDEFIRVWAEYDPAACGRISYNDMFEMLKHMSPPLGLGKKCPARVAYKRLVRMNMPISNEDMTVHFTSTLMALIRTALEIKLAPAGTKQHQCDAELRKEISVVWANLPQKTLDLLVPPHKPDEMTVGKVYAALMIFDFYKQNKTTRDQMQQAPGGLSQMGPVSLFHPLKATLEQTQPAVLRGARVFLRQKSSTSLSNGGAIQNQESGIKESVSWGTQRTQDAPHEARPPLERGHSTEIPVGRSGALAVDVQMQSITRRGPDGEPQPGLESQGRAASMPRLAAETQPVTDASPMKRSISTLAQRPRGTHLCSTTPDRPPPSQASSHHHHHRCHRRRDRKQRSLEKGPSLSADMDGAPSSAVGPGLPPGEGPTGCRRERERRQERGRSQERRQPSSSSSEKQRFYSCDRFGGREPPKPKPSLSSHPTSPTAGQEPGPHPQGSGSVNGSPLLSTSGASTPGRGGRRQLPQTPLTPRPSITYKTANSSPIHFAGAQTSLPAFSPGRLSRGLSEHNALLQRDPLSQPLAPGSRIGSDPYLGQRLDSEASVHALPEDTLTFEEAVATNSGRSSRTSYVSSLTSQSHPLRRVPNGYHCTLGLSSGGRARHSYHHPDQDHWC
T4 sequence (Q02410 whole entry): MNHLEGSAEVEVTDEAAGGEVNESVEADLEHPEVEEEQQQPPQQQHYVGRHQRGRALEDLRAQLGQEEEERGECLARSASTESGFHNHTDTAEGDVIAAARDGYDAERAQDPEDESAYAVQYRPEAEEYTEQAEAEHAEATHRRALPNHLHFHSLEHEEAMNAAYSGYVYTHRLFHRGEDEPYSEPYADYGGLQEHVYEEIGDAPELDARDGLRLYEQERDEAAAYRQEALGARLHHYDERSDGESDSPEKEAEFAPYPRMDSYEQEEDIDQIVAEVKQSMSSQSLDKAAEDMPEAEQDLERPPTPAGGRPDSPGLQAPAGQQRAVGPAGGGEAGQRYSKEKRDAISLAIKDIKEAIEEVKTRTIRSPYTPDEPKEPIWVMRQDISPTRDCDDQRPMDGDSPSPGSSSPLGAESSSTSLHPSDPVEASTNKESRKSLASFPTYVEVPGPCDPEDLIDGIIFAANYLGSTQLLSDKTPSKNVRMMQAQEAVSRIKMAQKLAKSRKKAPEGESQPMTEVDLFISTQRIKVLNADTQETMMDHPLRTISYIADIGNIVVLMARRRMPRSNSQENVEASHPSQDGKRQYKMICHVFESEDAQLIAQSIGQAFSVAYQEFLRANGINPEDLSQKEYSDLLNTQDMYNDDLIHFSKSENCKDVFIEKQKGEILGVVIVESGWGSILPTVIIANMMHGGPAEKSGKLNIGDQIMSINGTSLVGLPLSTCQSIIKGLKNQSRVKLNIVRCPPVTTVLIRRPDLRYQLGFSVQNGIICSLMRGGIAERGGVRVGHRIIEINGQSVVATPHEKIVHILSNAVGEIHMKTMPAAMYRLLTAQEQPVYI

Regarding `CCOC(=O)c1c2ccc(OCC(=O)NN)cc2n2ccccc12`, the IC50 was > 66 µM (inactive) in assay [1]; 6.82 µM (active) on SUMO-activating enzyme [2]; 33.6 µM (inactive) in [3]; 18.5 µM (active) in assay [4]; 40.2 µM (active) in assay [5]; 62.8 µM (inactive) in assay [6]. Moreover, the IC50 on SUMO-activating enzyme [7] is 1.64 µM (active); in [8], > 50 µM (not active); in assay [9], 2.73 µM (active). For the same compound, the AC50 in “cells” was > 52 µM (inactive).

Take `CC(=O)c1ccc(N2CCN(C(=O)Cc3cccs3)CC2)cc1`: the AC50 in [10] was > 52 µM (inactive); in assay [11], 3.82 µM (active); in [12], 11.6 µM (active); in the assay on HEK293 it was > 52 µM (inactive).

`C=CCC1(CC=C)CCCN1C(=O)c1cc(COc2ccc(-n3cncn3)cc2)on1`: the IC50 in assay [13] is 7.88 µM (active).

For the compound `O=C(O)c1cccc(COc2ccccc2Cl)c1`, the AC50 is 0.517 µM (active) in [14]; 0.756 µM (active) in [15]; 4.74 µM (active) in assay [16]; > 52 µM (inactive) in assay [17]; 1.48 µM (active) in assay [19]; > 52 µM (inactive) in [20]. Further, the AC50 is 0.488 µM (active) in [21] and > 52 µM (inactive) in [22]. For the same compound, the EC50 in [18] is 1.06 µM (active).

In general, AC50 refers to the concentration at which the activity in the assay is half-maximal. In general, EC50 refers to the concentration needed to bring the measured effect to its halfway point.
